Source: US8153559B2, “Certain plant growth regulators (PGRs) as safener to Glyphosate for application to Glyphosate-tolerant crops” (CP Bio, Inc., priority 2004, dated 2012)

Tested on: Round-Up Ready crops
Assay: Field tests on use of Glyphosate on Round-Up Ready crops
Format: in vivo
Conditions: Glyphosate-tolerant (Round-Up Ready) crops
From the text: This adverse effect is referred to as the Glyphosate's phytotoxicity in present application.

Which “effect on the growth of Round-Up Ready crops (Glyphosate's phytotoxicity)” value does the source give for `O=C(O)CNCP(=O)(O)O` [Glyphosate] here?
Its value is “substantial adverse effect to the growth”.
